Laboratory results taken from patent publication US6087121A, “Chemiluminescent detection of heme proteins in biological samples” (Mayo Foundation for Medical Education and Research, priority 1999, dated 2000).
Entries after “also recorded” stand apart in the source; their conditions may differ. Read-outs that look alike come from different tables or passages of the source.

What was measured:
[1] = tested on: Hb; experiment: S/N ratios of different chemiluminescent substrates with Hb; type: biochemical, human; details: signal integrated over first five seconds
Experimental: (§1) Centricon ultrafiltration filters were obtained from Amicon (Daven, Mass.). Polystyrene tubes (5.0 mL volume, 75×12 mm) used for the assay were manufactured by Sarstedt (Arlington Heights, Ill.). The chemiluminescent substrate, 7-dimethylamino-naphthalene-1,2-dicarbonic acid-hydrazide (7-DNH) was purchased from Boehringer Mannheim (Indianapolis, Ind.). PS-1 acridan substrate (solution A and solution B) was obtained from Lumigen Inc. (Southfield, Mich.). […] Tween-20 and Sodium Chloride were purchased from Fisher Scientific (Fair Lawn, N.J.). General laboratory chemicals such as, boric acid, sodium acetate, Trizma base, HEPES, hydrogen peroxide (H2 O2) solution (30.0%), human hemoglobin, catalase, 6-amino-2,3-dihydro-1,4-phthallazinedione (4-aminophthalhydrazide), N-(4-Aminobutyl)-N-ethyl-isoluminol, Triton X-100, (3-[3-cholamidopropyl)dimethylammonio]-1-propanesulfonate) (CHAPS), hydrogen disulfite, methimazole, ofloxacin, ascorbic acid, ammonium chloride, EDTA, Hb, bilirubin, and lactoperoxidase (LPO) were purchased from Sigma Chemical Company (St. Louis, Mo.). Human heart myoglobin and myeloperoxidase were obtained from Calbiochem (La Jolla, Calif.) Thyroid peroxidase (TPO) was purchased from O.E.M. Concepts, Inc. (Toms River, N.J.). Eosinophil peroxidase was provided by Dr. Greipp (Mayo Clinic). Fresh EDTA anticoagulated blood was collected from donors showing no signs of sickness and washed with physiological saline to isolate RBC.
(§2) Fresh urine specimens were obtained in routine commercial collection vessels. The specimens were, either, analyzed immediately or stored at 4° C. until analysis. The urine samples were prepared for analysis by adding CTAC to produce a 0.1% solution, unless otherwise noted, in order to lyse the erythrocytes, thereby releasing hemoglobin. The assays were performed in a 75×12 mm polystyrene tube. The assay solutions were prepared by adding to each tube 294 μL of high ionic strength buffer, 5.0 μL of the prepared urine samples or standards, and […] of substrate (0.4 mM solution of 7-DNH), unless otherwise noted. […] The standard curve was obtained by plotting chemiluminescence emission in Relative Light Units (RLU) versus Hb concentration (μg/mL) or number of RBCs (#RBC/high power field (hpf)). Cell counts were determined with the Yellow Iris® instrument and confirmed by a manual hemocytometer count.
(§3) The substrate (7-DNH) and the ultrafiltered urine were prepared as described above. The kinetics of chemiluminescence was determined by monitoring the chemiluminescence signal over a 20 second time period following addition of the substrate (7-DNH) to ultrafiltered urine. Measurements were performed either in the presence or absence of Hb. Experiments performed in the absence of Hb provide background measurements in relative light units (RLU).

[2] = tested on: Mb; experiment: S/N ratios of different chemiluminescent substrates with Mb; type: biochemical, human; details: signal integrated over first five seconds
Experimental: as §1, §2
as §3, with “Experiments performed in the absence of Hb provide background measurements in relative light units (RLU).” left out

[3] = target: T1, MPO (Homo sapiens, UniProt P05164); experiment: Drug interferences with MPO (PS-1 assay in urine); type: biochemical; details: for inhibition at 0.001 µg/mL: 1 ng/mL
T1 sequence (P05164 49-745): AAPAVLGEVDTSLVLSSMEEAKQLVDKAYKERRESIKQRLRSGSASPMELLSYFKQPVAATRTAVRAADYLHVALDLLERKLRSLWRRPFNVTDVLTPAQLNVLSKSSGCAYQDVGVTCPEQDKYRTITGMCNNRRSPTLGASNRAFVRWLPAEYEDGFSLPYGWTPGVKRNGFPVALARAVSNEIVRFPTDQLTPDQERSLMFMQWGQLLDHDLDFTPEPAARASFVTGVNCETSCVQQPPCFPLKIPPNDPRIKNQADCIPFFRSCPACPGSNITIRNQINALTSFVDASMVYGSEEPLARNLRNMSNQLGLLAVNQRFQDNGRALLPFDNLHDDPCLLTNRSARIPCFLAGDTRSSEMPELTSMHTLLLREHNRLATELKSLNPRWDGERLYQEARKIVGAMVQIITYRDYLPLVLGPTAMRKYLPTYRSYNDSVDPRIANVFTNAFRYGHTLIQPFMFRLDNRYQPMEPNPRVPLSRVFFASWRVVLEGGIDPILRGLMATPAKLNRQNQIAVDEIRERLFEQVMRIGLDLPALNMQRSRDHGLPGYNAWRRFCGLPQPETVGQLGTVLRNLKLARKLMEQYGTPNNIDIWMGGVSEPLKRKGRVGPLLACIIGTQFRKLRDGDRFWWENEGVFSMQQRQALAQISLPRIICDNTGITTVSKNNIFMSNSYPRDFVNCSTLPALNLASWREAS
Experimental: (§4) Urine samples were diluted 1:4 into distilled water to minimize inhibitory effects observed with hyperosmolal urines. Two μL of diluted urine were added to 12×75 mm polystyrene test tube containing 50 μL of the PS-1 solution. The tubes were incubated at 37° C. for 5 minutes. MPO activity was determined by chemiluminescence emission using a Turner TD-20e luminometer maintained at 37° C. Leukocyte counting was performed manually by using a hemacytometer chamber (Kova Glasstic slide, Hycor, Irvine, Calif.) on each urine sample to determine the number of cells/mL.
Several possible interfering substances were added to urine and tested for inhibitory effects. Several common medications were also tested for potential inhibitory effects.

[4] = tested on: Hb; experiment: Interference studies in Hb assay (7-DNH chemiluminescence); type: biochemical, human; details: for Level of Interference (in words): highest conc: ascorbic acid 10, bilirubin 10, Cu++/Mn++ 40, sodium azide 500 μg/mL, uric acid 1 mg/mL; for Level of Interference: level producing a signal equivalent to 3 RBC per high power field, fixed Hb concentration
Experimental: Numerous potential interfering substances, which either enhance or quench the signal generated by cyclic hydrazides, were evaluated. The effects of these potentially interfering substances on light emission was investigated at varying concentrations of the interfering composition. Assays were performed using serial dilutions of the potential interfering compositions in ultrafiltered urine at a fixed concentration of Hb. Comparisons of chemiluminescence emission were made between a reference solution (Hb in ultrafiltered urine) without added interfering compositions and solutions with added interferant.
Generally, the value of 3 RBC per high power field is the normal cutoff point.
Bilirubin and uric acid were examined as a possible negative interfering compositions because of their chemical structure which may quench energy emitted.

[5] = target: T1, MPO; experiment: Effects of potential interfering substances in WBC (MPO, PS-1) assay; type: biochemical; details: highest tested: uric acid 1 mg/mL, ascorbic acid 100 μg/mL, bilirubin 50 μg/mL, trolox 1 mg/mL
Experimental: as §4
Several possible interfering substances were added to urine and tested for inhibitory effects. Several common medications were also tested for potential inhibitory effects. […] Hb at concentrations of >10 μg/mL and Mb at concentrations >2 μg/mL were detected by the PS-1 substrate as the chemiluminescence emission was above the normal urine background. Samples grossly populated with bacteria caused slight inhibition of the MPO activity. Urine samples may contain many epithelial cells, casts, crystals, and numerous artifacts but none of these appear to interfere with the chemiluminescence emission from MPO.

[6] = tested on: Hb; experiment: Effects of detergents on chemiluminescence emission in Hb assay; type: biochemical, human
Experimental: Increasing concentrations of Hb were assayed with equal concentrations of different detergents to assess the effectiveness of the detergents at enhancing chemiluminescence emission. The effectiveness of the detergents was also compared at different time periods and varying concentrations. The ultrafiltered urine was assumed to contain neither Hb nor Mb and was used as the blank to assess background chemiluminescence emission with the substrate.

Compound: CCN(CCCCN)c1ccc2c(=O)[nH][nH]c(=O)c2c1 [ABEI, N-(4-Aminobutyl)-N-ethyl-isoluminol]
- S/N for Hb [1]: 3
- S/N for Mb [2]: 6

Compound: Cn1c(=O)c2[nH]cnc2n(C)c1=O [Aminophyllin]
- % Inhibition of MPO ([3]; 100 μg/mL): 4%

Compound: CN(C)CCC=C1c2ccccc2CCc2ccccc21 [Amitriptylene]
- inhibition at 100 µg/mL ([3]; 100 μg/mL, read-out: % Inhibition of MPO): 75%

Compound: O=C1O[C@H]([C@@H](O)CO)C(O)=C1O [Ascorbic Acid, ascorbic acid]
- Level of Interference (in words) [4]: None
- Level of Interference (in words) ([4]; listed as ascorbic acid): did not interfere; also recorded: did not have an inhibitory effect on the reaction
- Interference (in words) [5]: None
- Interference (in words) ([5]; listed as ascorbic acid): did not affect assay performance

Compound: C=CC1=C(C)/C(=C/c2[nH]c(Cc3[nH]c(/C=C4\NC(=O)C(C)=C4C=C)c(C)c3CCC(=O)O)c(CCC(=O)O)c2C)NC1=O [Bilirubin, bilirubin]
- Level of Interference (in words) [4]: None
- Level of Interference (in words) ([4]; listed as bilirubin): did not interfere
- Interference (in words) [5]: None
- Interference (in words) ([5]; listed as bilirubin): did not affect assay performance

Compound: CCCCCCCCCCCCCCCC[N+](C)(C)C.[Cl-] [CTAC, cetyltrimethyl-ammonium chloride]
- enhancement of chemiluminescence signal ([6]; 7-DNH, various Hb concentrations): highest chemiluminescence signal
- optimal concentration for enhancement of signal ([6]; dose-dependent enhancement, FIG. 4B): 0.1%

Compound: C[C@]12CC[C@@H]3c4ccc(O)cc4CC[C@H]3[C@@H]1CC[C@@H]2O [Estradiol]
- inhibition at 0.001 µg/mL [3]: 20%

Compound: C[C@]12CC[C@@H]3c4ccc(O)cc4CC[C@H]3[C@@H]1C[C@@H](O)[C@@H]2O [Estriol]
- inhibition at 0.001 µg/mL [3]: 15%

Compound: Nc1ccc2c(=O)[nH][nH]c(=O)c2c1 [Isoluminol, 6-amino-2,3-dihydro-1,4-phthallazinedione]
- S/N for Hb [1]: 3
- S/N for Mb [2]: 5

Compound: CC(C(=O)O)c1cccc(C(=O)c2ccccc2)c1 (stereo not shown) [Ketoprofyn]
- inhibition at 100 mg/day ([3]; read-out: % Inhibition of MPO): 10%

Compound: Nc1cccc2c(=O)[nH][nH]c(=O)c12 [Luminol]
- S/N for Hb [1]: 89
- S/N for Mb [2]: 73

Compound: COc1ccc2cc([C@H](C)C(=O)O)ccc2c1 [Naprosyn]
- inhibition at 800 mg/day ([3]; read-out: % Inhibition of MPO): 5%

Compound: C[C@]12C=CC(=O)C=C1CC[C@@H]1[C@@H]2[C@@H](O)C[C@@]2(C)[C@H]1CC[C@]2(O)C(=O)CO [Prednisolone]
- inhibition at 100 µg/mL ([3]; read-out: % Inhibition of MPO): 13%

Compound: [N-]=[N+]=[N-] [Sodium Azide, sodium azide]
- Level of Interference (in words) [4]: None
- Level of Interference (in words) ([4]; listed as sodium azide): did not interfere

Compound: Cn1c(=O)c2[nH]cnc2n(C)c1=O [Theophyllin]
- % Inhibition of MPO ([3]; 100 μg/mL): 11%

Compound: Cc1c(C)c2c(c(C)c1O)CCC(C)(C(=O)O)O2 (stereo not shown) [Trolox]
- Interference (in words) [5]: None
- Interference (in words) ([5]; listed as trolox): did not affect assay performance

Compound: O=c1[nH]c(=O)c2[nH]c(=O)[nH]c2[nH]1 [Uric Acid, uric acid]
- Level of Interference (in words) [4]: None
- Level of Interference (in words) ([4]; listed as Uric acid): did not interfere
- Interference (in words) [5]: None
- Interference (in words) ([5]; listed as uric acid): did not affect assay performance

Compound: Catalase
- Level of Interference (in words) [4]: only interfere at very high concentrations
- Level of Interference [4]: > 7.8 µg/mL

Compound: Eosinophil peroxidase: Eosinophil peroxidase was provided by Dr. Greipp (Mayo Clinic)
- Level of Interference (in words) [4]: only interfere at very high concentrations
- Level of Interference [4]: > 0.007 µg/mL

Compound: Superoxide dismutase
- Level of Interference [4]: > 125 µg/mL
